Test results as given in patent US20240101576A1, “HETEROCYCLIC INHIBITORS OF EGFR AND/OR HER2, FOR USE IN THE TREATMENT OF CANCER” (Scorpion Therapeutics, Inc., priority 2020, published 2024).

Experiments:
Format in all cases: cell-based
[1] = target: T1, EGFR exon 20 SVD Ins D770_N771 (Ba/F3 cells) (Homo sapiens, UniProt P00533, INS770SVD); test: Inhibitor activity on EGFR-dependent cell growth (CellTiter-Glo, 72 h), Ba/F3 EGFR exon 20 SVD Ins; conditions: read-out: BaF3 SVD IC50
T1 construct: expressed in transfected cells; host or cells: Ba/F3 (murine pro-B cells), retroviral transduction, puromycin selection, IL3-independent pool
Procedure, shortened: (§1)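 IC50s derive from a sigmoidal dose–response fit of CellTiter-Glo signal. The signal was normalised between […]-treated cells and cell-free medium. Ba/F3 mutant-EGFR cells, seeded at 400–800/well depending on the line, had 72 h of exposure to a 10-point, 3-fold compound series.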

[2] = target: T2, EGFR exon 20 FQEA Ins A763_V764 (Ba/F3 cells) (Homo sapiens, UniProt P00533, INS763FQEA); test: Inhibitor activity on EGFR-dependent cell growth (CellTiter-Glo, 72 h), Ba/F3 EGFR exon 20 FQEA Ins; conditions: read-out: BaF3 FQEA IC50
T2 construct: expressed in transfected cells; host or cells: Ba/F3 (murine pro-B cells), retroviral transduction, puromycin selection, IL3-independent pool
Procedure, shortened: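 Cell viability was measured by CellTiter-Glo after a three-day treatment. The IL3-free Ba/F3 lines carried L858R, L858R/C797S, exon 19 deletion or FQEA insertion EGFR and were seeded at 400, 600, 800 and 800 cells/well respectively.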

[3] = target: T3, EGFR exon 20 ASV Ins V769_D770 (Ba/F3 cells) (Homo sapiens, UniProt P00533, INS769ASV); test: Inhibitor activity on EGFR-dependent cell growth (CellTiter-Glo, 72 h), Ba/F3 EGFR exon 20 ASV Ins; conditions: read-out: BaF3 ASV IC50
T3 construct: expressed in transfected cells; host or cells: Ba/F3 (murine pro-B cells), retroviral transduction, puromycin selection, IL3-independent pool
Procedure, shortened: as §1

EGFR WT (Ba/F3 cells) = target: T4, EGFR WT (Ba/F3 cells) (Homo sapiens, UniProt P00533); test: Inhibitor activity on EGFR-dependent cell growth (CellTiter-Glo, 72 h), Ba/F3 EGFR WT; conditions: read-out: BaF3 WT IC50
T4 construct: expressed in transfected cells; host or cells: Ba/F3 (murine pro-B cells), retroviral transduction, puromycin selection, maintained with EGF
Procedure, shortened: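 This growth assay used Ba/F3 cells that depend on wild-type EGFR and are kept in EGF without IL3. Compounds were made up as 10 mM DMSO stocks and diluted 3-fold over 10 points. 120 nL went onto 600 cells/well. After 72 hours, 40 μL CellTiter-Glo was added and luminescence read on EnVision after 30 min.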

T1 sequence (P00533 with tags, fused parts or gaps INS770SVD): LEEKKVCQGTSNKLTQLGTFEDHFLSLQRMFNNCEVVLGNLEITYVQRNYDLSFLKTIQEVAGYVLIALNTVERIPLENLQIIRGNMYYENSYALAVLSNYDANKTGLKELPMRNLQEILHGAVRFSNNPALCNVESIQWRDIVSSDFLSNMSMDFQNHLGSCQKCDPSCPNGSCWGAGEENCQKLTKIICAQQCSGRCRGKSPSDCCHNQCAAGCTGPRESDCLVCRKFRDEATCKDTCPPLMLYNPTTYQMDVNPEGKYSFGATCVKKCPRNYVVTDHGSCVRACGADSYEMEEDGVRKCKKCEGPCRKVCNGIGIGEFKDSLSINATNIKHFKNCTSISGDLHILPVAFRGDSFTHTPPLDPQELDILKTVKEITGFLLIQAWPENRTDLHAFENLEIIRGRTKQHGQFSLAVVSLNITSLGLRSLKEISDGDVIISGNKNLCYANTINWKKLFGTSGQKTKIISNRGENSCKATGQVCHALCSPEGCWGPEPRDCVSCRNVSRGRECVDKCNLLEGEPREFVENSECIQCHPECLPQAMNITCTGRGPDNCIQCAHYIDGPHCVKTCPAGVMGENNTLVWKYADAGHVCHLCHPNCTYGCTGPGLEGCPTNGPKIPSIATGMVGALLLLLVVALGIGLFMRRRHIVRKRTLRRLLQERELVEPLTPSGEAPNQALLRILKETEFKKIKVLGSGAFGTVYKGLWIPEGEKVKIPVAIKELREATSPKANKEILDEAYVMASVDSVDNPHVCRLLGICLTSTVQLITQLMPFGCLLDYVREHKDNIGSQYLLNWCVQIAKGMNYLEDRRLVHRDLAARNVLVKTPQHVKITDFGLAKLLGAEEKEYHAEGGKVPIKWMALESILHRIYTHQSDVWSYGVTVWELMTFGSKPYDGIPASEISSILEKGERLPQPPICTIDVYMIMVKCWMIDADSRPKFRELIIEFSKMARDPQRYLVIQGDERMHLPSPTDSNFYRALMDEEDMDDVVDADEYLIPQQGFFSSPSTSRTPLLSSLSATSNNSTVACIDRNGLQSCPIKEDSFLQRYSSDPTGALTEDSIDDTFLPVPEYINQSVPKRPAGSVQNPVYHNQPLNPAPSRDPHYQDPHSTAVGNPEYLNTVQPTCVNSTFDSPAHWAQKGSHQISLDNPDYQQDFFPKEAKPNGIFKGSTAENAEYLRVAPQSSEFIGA
T2 sequence (P00533 with tags, fused parts or gaps INS763FQEA): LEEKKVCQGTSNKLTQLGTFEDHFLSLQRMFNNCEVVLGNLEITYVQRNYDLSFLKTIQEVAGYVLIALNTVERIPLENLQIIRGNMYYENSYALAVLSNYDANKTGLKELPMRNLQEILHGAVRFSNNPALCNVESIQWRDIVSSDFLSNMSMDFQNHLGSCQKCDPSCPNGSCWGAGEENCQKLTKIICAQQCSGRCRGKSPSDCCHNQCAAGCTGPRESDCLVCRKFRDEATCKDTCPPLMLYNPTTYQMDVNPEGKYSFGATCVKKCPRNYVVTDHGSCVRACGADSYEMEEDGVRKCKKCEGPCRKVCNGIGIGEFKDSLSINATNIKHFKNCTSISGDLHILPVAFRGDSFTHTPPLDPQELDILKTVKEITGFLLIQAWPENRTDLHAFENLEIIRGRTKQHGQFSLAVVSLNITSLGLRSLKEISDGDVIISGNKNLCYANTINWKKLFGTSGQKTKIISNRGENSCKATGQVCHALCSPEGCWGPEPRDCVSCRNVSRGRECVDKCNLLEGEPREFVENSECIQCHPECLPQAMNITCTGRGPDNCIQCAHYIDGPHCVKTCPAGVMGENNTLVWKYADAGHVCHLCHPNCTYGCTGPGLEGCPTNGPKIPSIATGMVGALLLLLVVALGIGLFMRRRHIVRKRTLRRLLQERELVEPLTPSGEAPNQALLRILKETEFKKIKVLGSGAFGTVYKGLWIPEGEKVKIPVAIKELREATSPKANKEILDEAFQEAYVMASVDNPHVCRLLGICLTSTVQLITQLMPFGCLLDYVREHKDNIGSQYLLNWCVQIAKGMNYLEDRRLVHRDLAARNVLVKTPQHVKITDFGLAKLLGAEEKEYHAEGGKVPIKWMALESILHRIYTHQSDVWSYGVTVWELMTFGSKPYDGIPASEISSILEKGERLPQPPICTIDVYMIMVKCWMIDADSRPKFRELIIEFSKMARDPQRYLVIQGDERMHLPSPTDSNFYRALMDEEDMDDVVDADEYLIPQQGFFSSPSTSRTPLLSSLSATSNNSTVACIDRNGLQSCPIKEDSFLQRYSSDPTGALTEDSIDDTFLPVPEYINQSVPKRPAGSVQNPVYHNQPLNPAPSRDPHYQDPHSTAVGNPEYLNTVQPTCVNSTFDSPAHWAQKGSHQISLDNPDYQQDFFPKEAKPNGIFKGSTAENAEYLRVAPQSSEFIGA
T3 sequence (P00533 with tags, fused parts or gaps INS769ASV): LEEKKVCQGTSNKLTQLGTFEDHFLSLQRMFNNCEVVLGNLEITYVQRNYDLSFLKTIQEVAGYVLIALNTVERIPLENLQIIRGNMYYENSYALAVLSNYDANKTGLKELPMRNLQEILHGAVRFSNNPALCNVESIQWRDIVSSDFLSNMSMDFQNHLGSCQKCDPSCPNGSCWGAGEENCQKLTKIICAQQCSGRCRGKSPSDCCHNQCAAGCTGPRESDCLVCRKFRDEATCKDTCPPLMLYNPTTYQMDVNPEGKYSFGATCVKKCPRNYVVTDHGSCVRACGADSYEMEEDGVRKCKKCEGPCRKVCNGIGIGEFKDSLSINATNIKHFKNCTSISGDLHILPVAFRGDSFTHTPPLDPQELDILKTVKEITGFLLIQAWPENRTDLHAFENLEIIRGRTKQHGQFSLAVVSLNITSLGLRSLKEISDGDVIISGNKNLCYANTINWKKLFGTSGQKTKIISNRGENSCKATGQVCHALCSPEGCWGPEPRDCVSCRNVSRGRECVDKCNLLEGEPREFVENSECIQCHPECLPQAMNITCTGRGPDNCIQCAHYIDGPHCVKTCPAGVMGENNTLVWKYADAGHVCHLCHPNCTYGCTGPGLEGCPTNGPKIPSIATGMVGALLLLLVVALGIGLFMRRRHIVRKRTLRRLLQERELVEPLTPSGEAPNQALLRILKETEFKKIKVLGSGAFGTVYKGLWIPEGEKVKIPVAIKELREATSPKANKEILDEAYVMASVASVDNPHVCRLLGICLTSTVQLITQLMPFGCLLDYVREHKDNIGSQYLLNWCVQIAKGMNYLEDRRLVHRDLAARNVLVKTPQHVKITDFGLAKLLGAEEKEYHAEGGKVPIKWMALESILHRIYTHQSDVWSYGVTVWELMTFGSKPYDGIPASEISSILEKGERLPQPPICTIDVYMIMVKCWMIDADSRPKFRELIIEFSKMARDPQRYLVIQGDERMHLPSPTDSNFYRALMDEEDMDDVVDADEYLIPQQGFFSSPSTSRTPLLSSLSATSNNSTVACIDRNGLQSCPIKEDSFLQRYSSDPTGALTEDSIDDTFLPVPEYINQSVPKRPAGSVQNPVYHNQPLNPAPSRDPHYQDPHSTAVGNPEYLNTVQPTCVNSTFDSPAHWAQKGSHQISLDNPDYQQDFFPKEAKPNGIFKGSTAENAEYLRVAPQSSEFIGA
T4 sequence (P00533 25-1210): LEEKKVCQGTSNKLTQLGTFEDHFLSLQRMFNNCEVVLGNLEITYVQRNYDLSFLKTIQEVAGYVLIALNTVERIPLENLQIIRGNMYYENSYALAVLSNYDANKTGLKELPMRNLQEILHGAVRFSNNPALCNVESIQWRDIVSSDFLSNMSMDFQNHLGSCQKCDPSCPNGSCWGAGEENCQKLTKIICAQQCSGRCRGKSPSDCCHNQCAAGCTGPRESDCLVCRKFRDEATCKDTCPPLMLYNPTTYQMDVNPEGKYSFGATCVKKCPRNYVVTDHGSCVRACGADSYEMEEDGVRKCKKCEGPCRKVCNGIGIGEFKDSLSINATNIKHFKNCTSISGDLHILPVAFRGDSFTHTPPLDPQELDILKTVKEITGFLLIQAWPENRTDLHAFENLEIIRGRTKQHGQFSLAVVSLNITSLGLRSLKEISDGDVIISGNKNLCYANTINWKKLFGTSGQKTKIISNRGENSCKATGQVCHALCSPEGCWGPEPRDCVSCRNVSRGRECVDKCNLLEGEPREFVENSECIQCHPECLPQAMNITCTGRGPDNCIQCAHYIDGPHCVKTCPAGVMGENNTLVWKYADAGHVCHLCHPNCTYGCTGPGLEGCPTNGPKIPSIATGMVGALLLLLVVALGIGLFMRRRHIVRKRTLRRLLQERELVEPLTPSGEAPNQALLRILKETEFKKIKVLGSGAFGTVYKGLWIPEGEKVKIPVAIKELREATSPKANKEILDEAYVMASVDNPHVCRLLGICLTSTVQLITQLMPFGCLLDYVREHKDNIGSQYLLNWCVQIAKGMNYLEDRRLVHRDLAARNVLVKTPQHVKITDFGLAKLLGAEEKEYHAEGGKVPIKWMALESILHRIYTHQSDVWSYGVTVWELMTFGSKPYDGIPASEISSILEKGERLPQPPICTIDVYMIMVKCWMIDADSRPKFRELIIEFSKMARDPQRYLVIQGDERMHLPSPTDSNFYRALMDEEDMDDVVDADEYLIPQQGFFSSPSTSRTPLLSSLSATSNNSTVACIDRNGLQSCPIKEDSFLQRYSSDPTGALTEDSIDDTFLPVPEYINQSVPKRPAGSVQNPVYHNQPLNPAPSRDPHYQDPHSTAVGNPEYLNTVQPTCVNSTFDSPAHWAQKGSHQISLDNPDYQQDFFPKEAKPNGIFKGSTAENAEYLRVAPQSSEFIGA

IC50 [1]	IC50 [2]	IC50 [3]	IC50 (EGFR WT (Ba/F3 cells))	SMILES
< 100 nM	< 100 nM	100 to 1000 nM	100 to 1000 nM	COc1ncc2nccc(-c3[nH]c4c(c3Nc3cccc(F)c3F)C(=O)NCC4)c2n1 [Compound 805, 3-[(2,3-difluorophenyl)amino]-2-[2-methoxypyrido[3,2-d]pyrimidin-8-yl]-1H,5H,6H,7H-pyrrolo[3,2-c]pyridin-4-one]
> 1000 nM	100 to 1000 nM	> 1000 nM	> 1000 nM	COc1ncc2nccc(-c3[nH]c4c(c3Nc3c(F)cccc3F)C(=O)NCC4)c2n1 [Compound 806, 3-[(2,6-difluorophenyl)amino]-2-[2-methoxypyrido[3,2-d]pyrimidin-8-yl]-1H,5H,6H,7H-pyrrolo[3,2-c]pyridin-4-one]
< 100 nM	< 100 nM	< 100 nM	< 100 nM	COc1cc2nccc(-c3[nH]c4c(c3Nc3cccc(F)c3OC)C(=O)NCC4)c2nc1OC [Compound 807, 2-(6,7-dimethoxy-1,5-naphthyridin-4-yl)-3-[(3-fluoro-2-methoxyphenyl)amino]-1H,5H,6H,7H-pyrrolo[3,2-c]pyridin-4-one]
< 100 nM	100 to 1000 nM	100 to 1000 nM	> 1000 nM	COc1c(F)cccc1Nc1c(-c2ccnc3cc(F)cnc23)[nH]c2c1C(=O)NCC2 [Compound 825, 2-(7-fluoro-1,5-naphthyridin-4-yl)-3-[(3-fluoro-2-methoxyphenyl)amino]-1H,5H,6H,7H-pyrrolo[3,2-c]pyridin-4-one]
< 100 nM	< 100 nM	< 100 nM	100 to 1000 nM	COc1c(Cl)cccc1Nc1c(-c2ccnc3cc(F)cnc23)[nH]c2c1C(=O)NCC2 [Compound 826]
> 1000 nM	> 1000 nM	> 1000 nM	> 1000 nM	COc1c(F)cccc1Nc1c(-c2nnc3ccccn23)[nH]c2c1C(=O)NCC2 [compound 239]
100 to 1000 nM	100 to 1000 nM	100 to 1000 nM	> 1000 nM	COc1c(F)cccc1Nc1c(-c2ccncc2)[nH]c2c1C(=O)NCC2 [compound 243]
100 to 1000 nM	100 to 1000 nM	100 to 1000 nM	> 1000 nM	COc1c(F)cccc1Nc1c(-c2ccnc3[nH]ccc23)[nH]c2c1C(=O)NCC2 [compound 252]
100 to 1000 nM	100 to 1000 nM	100 to 1000 nM	100 to 1000 nM	COc1c(F)cccc1Nc1c(-c2ccnc(SC)n2)[nH]c2c1C(=O)NCC2 [compound 255]
> 1000 nM	> 1000 nM	> 1000 nM	> 1000 nM	COc1c(F)cccc1Nc1c(-c2ccnc(-c3cnn(C)c3)c2)[nH]c2c1C(=O)NCC2 [compound 259]
< 100 nM	< 100 nM	< 100 nM	100 to 1000 nM	COc1ccc2nccc(-c3[nH]c4c(c3Nc3cccc(Cl)c3OC)C(=O)NCC43CC3)c2n1 [compound 316]
< 100 nM	< 100 nM	< 100 nM	100 to 1000 nM	COc1c(Cl)cccc1Nc1c(-c2ccnc3ccc(OC4CC4)nc23)[nH]c2c1C(=O)NCC21CC1 [compound 323]
< 100 nM	< 100 nM	< 100 nM	100 to 1000 nM	COc1ncc2nccc(-c3[nH]c4c(c3Nc3cccc(F)c3OC)C(=O)NCC43CC3)c2n1 [compound 379]
< 100 nM	< 100 nM	< 100 nM	< 100 nM	COc1c(F)cccc1Nc1c(-c2ccnc3cnc(OC4CC4)nc23)[nH]c2c1C(=O)NCC2 [compound 413]
100 to 1000 nM	100 to 1000 nM	100 to 1000 nM	> 1000 nM	COc1c(F)cccc1Nc1c(-c2ccnc3cnc(C(F)(F)F)nc23)[nH]c2c1C(=O)NCC2 [compound 417]
100 to 1000 nM	100 to 1000 nM	100 to 1000 nM	> 1000 nM	COc1c(F)cccc1Nc1c(-c2ccncc2F)[nH]c2c1C(=O)NCC2 [compound 418]
